For 80 compounds, RP-LC retention time results are on record in the METLIN SMRT retention time set (Domingo-Almenara et al. 2019).

The structures appear in SMILES notation.

The data set in a line: gradient 5% acetonitrile 3 min, to 50% in 2 min, to 85% in 15 min, held 3 min, 100 µL/min. Conditions: column: Zorbax Extend-C18 2.1 x 50 mm; eluents: water / acetonitrile, 0.1% formic acid. The method, boiled down:
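Mixtures of ~100 pure standards were chromatographed on a Zorbax Extend-C18 column (2.1 × 50 mm, 1.8 μm) at 100 μL/min using water and acetonitrile, each with 0.1% formic acid. Detection used a quadrupole time-of-flight mass spectrometer in positive and negative ionization mode, and data collection spanned 3 months. Retention time was obtained from adduct peaks picked computationally and each checked manually.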
In the case of `Cc1cc(Cl)ccc1S(=O)(=O)N1CCn2c(nnc2C2CCN(C(C)C)C2)C1` (stereo not given), the RP-LC retention time was 629 s.

On to `Cc1ccsc1C(=O)N1CCC(C2CCN(S(C)(=O)=O)CC2)C1` (stereo not given), for which the RP-LC retention time stood at 626 s. The value for `CN(C)CCCn1c(C2CC(=O)N(c3ccccc3F)C2)nc2ccccc21` (stereo not given) was 580 s; that for `Cc1ccccc1CNC(=O)C1=C2CCCN2c2ccccc2S1(=O)=O` was 873 s. `CCN1CCN(c2cc(C)c3cc(NC(=O)c4ccc([N+](=O)[O-])c(C)c4)ccc3n2)CC1`: the RP-LC retention time is 621 s. The value for `Cc1cc(C)n(CC(=O)N(C)CC2(C)CCOCC2)n1` was 612 s; that for `Cn1c(-c2ccccc2)c(C(=O)C(=O)N2CCOCC2)c2ccccc21` was 800 s; that for `N#Cc1cnc2ccc(F)cc2c1N1CCC(C(=O)Nc2ccc(F)cc2)CC1` was 885 s.

In turn, `O=C([C@@H]1C[C@H](F)CN1S(=O)(=O)c1cc(F)cc(F)c1)N1CCc2ccccc2C1` returned an RP-LC retention time of 961 s.

`O=C(N[C@H]1C[C@@H]2C[C@H]1N(C(=O)c1ccccc1Cl)C2)c1ccccc1`: the RP-LC retention time amounted to 717 s. The value for `COc1ccc2[nH]c3c(c2c1)CCNC3` was 365 s; that for `OCc1nnn(-c2ccccc2)c1CO` was 642 s; that for `CC(=O)c1cccc(NC(=O)N2CCc3cc(-c4ccc(C(=O)N5CCOCC5)cc4)ccc32)c1` was 918 s. Consider `O=C(Nc1cc(F)ccc1F)NC1CCN(c2cc(N3CCCC3)cnn2)C1` (stereo not given), for which the RP-LC retention time was 681 s.

As to `COCCC1CCOC2(CCN(C(=O)C3CC3)CC2)C1` (stereo not given), the RP-LC retention time was determined as 710 s. `Cc1cccn2c(Nc3ccc4c(c3)OCCO4)c(-c3ccc(N(C)C)cc3)nc12` came in with an RP-LC retention time of 735 s. The value for `CCCN(CCC)C(=O)C1COC2(CCCCC2)N1C(=O)c1c(OC)cccc1OC` (stereo not given) was 864 s; that for `Cc1ccc(C)c(NC(=O)N(C)CCc2noc(COc3ccccc3F)n2)c1` was 919 s.

Turning to `O=C(NCc1ccc(F)c(Cl)c1)c1ccc2ncnc(N3CCCC3)c2c1`, the RP-LC retention time amounted to 670 s.

In turn, `CCC(=O)Nc1ccc(C2(C(=O)NCCC(C)C)CCCCC2)cc1` yielded an RP-LC retention time of 936 s. The value for `O=C(c1cn(-c2cc(N3CCSCC3)ncn2)cn1)N1CCN(c2ccccc2)CC1` was 877 s; that for `O=C1CC(c2nc(-c3cccc(C(F)(F)F)c3)no2)CN1c1ccc2c(c1)OCO2` (stereo not given) was 1020 s. As to `CC1CCCCN1CCNC(=O)c1ccc(-c2ccnc(N3CCCC3)n2)cc1` (stereo not given), the RP-LC retention time came to 1230 s. The compound `O=C(Nc1ccc(OCc2nnc(-c3ccccc3)o2)cc1)C1COc2ccccc2O1` (stereo not given) had an RP-LC retention time of 984 s. The value for `O=C(NC1CCCCC1)c1nnc(-c2ccc(S(=O)(=O)N3CCCC3)cc2)o1` was 952 s; that for `Cc1ccccc1S(=O)(=O)N1CCCC(C)(C(=O)NCc2ccccc2)C1` (stereo not given) was 944 s; that for `CCc1c(C2CCN(C(=O)c3cccc(C#N)c3)CC2)noc1N` was 690 s. The value for `CCCCC(=O)N1CCN(C2CCN(CCOC)C2=O)CC1` (stereo not given) was 535 s; that for `CCCn1cc(C(=O)NC(C)CC)c2nn(-c3ccccc3)c(=O)c-2c1` (stereo not given) was 880 s. The compound `COc1ccc(CNC(=O)C2(C)CCN(C(=O)Nc3ccc(C)c(Cl)c3)CC2)cc1` came in with an RP-LC retention time of 935 s. The value for `Cc1cc(N(C)C)nc(N2CCN(C(=O)c3ccc(Br)cc3)CC2)n1` was 658 s; that for `O=C(CN1Cc2ccccc2C1=O)N[C@@H](Cc1c[nH]c2ccccc12)C(=O)O` was 661 s; that for `Cc1ncsc1CN1CC(Oc2ccc(-c3noc(C4CC4)n3)cc2)C1` was 652 s.

`Cc1cccn2cc(-c3ccc(NS(=O)(=O)c4ccc(Cl)cc4)cc3)nc12` returned an RP-LC retention time of 701 s.

`O=S(=O)(NCc1cccs1)c1cc(-c2noc(C3CCCC3)n2)cs1` yielded an RP-LC retention time of 1110 s. Compound `Cc1noc2nc(CCC(=O)NC(C)c3ccccc3)nc(N3CCC(C)CC3)c12` (stereo not given) had an RP-LC retention time of 941 s. The value for `Cc1ccc(C)c(NC(=O)Nc2ccc(-c3cn4ccc(C)nc4n3)cc2)c1` was 690 s; that for `Cc1nn(C(=O)C(C)(C)C)c(C)c1S(=O)(=O)N1CCCC1` was 1180 s.

`CSc1ccc(CNC(=O)c2nnc(-c3ccc(S(=O)(=O)N(C)C)cc3)o2)cc1` came in with an RP-LC retention time of 889 s. The value for `COC(=O)c1cc(C2CC2)nc2c1c(=O)n(Cc1cccc(C)c1)c(=O)n2C` was 1090 s. The value for `CN1Cc2ccccc2-n2ccnc2C12CCN(C(=O)c1cccc(F)c1)CC2` was 614 s; that for `CCN1C(=O)c2cc(C(=O)Nc3ccccc3C)nn2CC1(C)C(=O)NC1CCCC1` (stereo not given) was 807 s. The value for `COc1ccc2[nH]cc(CN3CC[C@H](c4n[nH]c(C)n4)[C@H](N(C)C)C3)c2c1` was 547 s; that for `COc1cccc(CNC(=O)C2(C)CCCN(C(=O)Nc3ccccc3)C2)c1` (stereo not given) was 839 s; that for `Cc1cccc(S(=O)(=O)N2CCCN(c3ccc(=O)n(-c4ccc(F)cc4)n3)CC2)c1` was 865 s. With `O=C(Cc1ccsc1)Nc1cnc(N2CCOCC2)nc1`, the RP-LC retention time came out at 686 s. The value for `O=C(CCSc1ccc(Cl)cc1)Nc1nc(-c2ccccc2)cs1` was 1170 s; that for `CCc1nc2cc(-c3noc(-c4ccc5ccccc5n4)n3)ccc2o1` was 1110 s. The value for `CC(=O)c1cccc(NC(=O)Nc2cccc(-c3ccc(N4CCOCC4)nn3)c2)c1` was 655 s; that for `Cc1ccc2oc(=O)n(Cc3noc(C(=O)NCC(C)c4ccccc4)n3)c2c1` (stereo not given) was 992 s.

For the compound `Cc1cccc(-c2nc(Cc3noc(CNC(=O)c4ccccc4)n3)c(C)o2)c1`, the RP-LC retention time is 924 s. Turning to `Cc1cccc(N2CCN(C(=O)C3CCN(Cc4cn(C)c5ccc(Cl)cc45)CC3)CC2)c1C`, the RP-LC retention time amounted to 878 s.

Turning to `CC(C(=O)NCCCN1CCOCC1)n1c2ccccc2c2cnn(C)c(=O)c21` (stereo not given), the RP-LC retention time was 599 s.

`O=C(CCCn1c(=O)c2cccn2c2ccc(F)cc21)NCCc1c[nH]c2ccccc12` displayed an RP-LC retention time of 858 s. The value for `COc1c(C(=O)NC(C)(C)C)sc2ccc(F)cc12` was 1080 s; that for `CCN1C(=O)c2cc(S(=O)(=O)Nc3ccccc3F)ccc2Oc2cccnc21` was 924 s. Compound `CN(C)CCCNC(=O)C1CCN(c2nc3ccc(-c4ccc(F)cc4)nc3s2)CC1` gave an RP-LC retention time of 686 s. The value for `CCS(=O)(=O)N1CCC(C(=O)NCCc2csc(-c3cccs3)n2)CC1` was 738 s; that for `COC(=O)c1c(NCCN2CCC(C)CC2)c2cccc(Cl)c2[nH]c1=O` was 583 s. The value for `CC1=C(c2ccccc2)S(=O)(=O)N=C1N1CCCN(C(=O)c2cccc(F)c2)CC1` was 847 s; that for `COc1cc(NC(=O)c2ccccn2)ccc1Cl` was 994 s. The value for `O=C1CCCc2cc(S(=O)(=O)N3CCC(C(=O)NCc4ccc5c(c4)OCO5)CC3)ccc2N1` was 706 s.

`COc1ccc(-c2cc(=O)c3c(O)cc(O)cc3o2)cc1OC` had an RP-LC retention time of 770 s. `COC(=O)C1=CN(C2CC2)c2cc(N3CCCCC3)c(F)cc2S1(=O)=O`: the RP-LC retention time amounted to 932 s. The value for `CNC(=O)[C@@H]1CN(C(=O)c2cscn2)C[C@H]1c1nc(C)no1` was 585 s. The compound `O=C(Nc1ccc(F)cc1F)N1CCC(n2cnc3cc(Cl)ccc3c2=O)CC1` came in with an RP-LC retention time of 806 s. The value for `Fc1ccc(-c2ccc(CNCc3ccccn3)o2)cc1` was 655 s; that for `Nc1c(C(=O)NCc2ccc3c(c2)OCO3)nsc1C(=O)N1CCN(c2ccccn2)CC1` was 663 s; that for `COCCOC1CN(C2CCN(Cc3cccc(C#N)c3)CC2)C12CCCCC2` (stereo not given) was 557 s. The value for `CNC(=O)c1cc2c(cn1)[nH]c1ccccc12` was 706 s; that for `O=C(NCC1CC1)c1cccc(N2CCNC(c3ccccc3)C2)n1` (stereo not given) was 619 s. The value for `CCNc1cc(C)nc(N2CCN(C(=O)c3cccc(Br)c3)CC2)n1` was 775 s; that for `Cc1cc2c(cc1S(=O)(=O)N1CCCC1C(=O)NCc1ccc(F)cc1)OCC(=O)N2` (stereo not given) was 712 s. Regarding `CCn1cc(CCNC(=O)Nc2ccc(Br)cc2)c2cccnc21`, the RP-LC retention time is 802 s.

The compound `O=C(Nc1cccc([N+](=O)[O-])c1)NC1CCS(=O)(=O)C1` (stereo not given) had an RP-LC retention time of 626 s.

As to `Cc1ccc(NS(=O)(=O)c2c(C)nc3sc4cc(C)ccc4n3c2=O)c(C)c1`, the RP-LC retention time was determined as 1230 s. With `Cc1cc(C)cc(NC(=O)N2CCCC2c2nc(-c3ccccc3C)no2)c1` (stereo not given), the RP-LC retention time came out at 1110 s. For the compound `CCCS(=O)(=O)N1CCCC(Cc2noc(-c3cnccn3)n2)C1` (stereo not given), the RP-LC retention time worked out at 764 s. The value for `O=C(NCC1CC1)C1(CCO)CCN(Cc2ccccc2)C1` (stereo not given) was 581 s; that for `CC(C)n1cnc2cc(CNC(=O)c3cccs3)ccc21` was 608 s.
